Reference: ChEMBL document CHEMBL4834430, “Design and Structure-Activity Relationships of Isothiocyanates as Potent and Selective N-Acylethanolamine-Hydrolyzing Acid Amidase Inhibitors” (J Med Chem, 2021)

Tests used:
[1] = Half life in CD-1 mouse plasma at 2 mg/kg, iv measured up to 8 hrs; assay type: ADME, organism-based
[2] = Volume of distribution in CD-1 mouse plasma at 8 mg/kg, po measured up to 8 hrs; assay type: ADME, organism-based; settings: in vivo
[3] = Clearance in CD-1 mouse plasma at 2 mg/kg, iv measured up to 8 hrs; assay type: ADME, organism-based
Cytochrome P450 2C9 = Cytochrome P450 2C9 (Homo sapiens, UniProt P11712); assay: Inhibition of CYP2C9 (unknown origin) at 10 uM; assay type: ADME
Sequence of Cytochrome P450 2C9 (P11712 whole entry): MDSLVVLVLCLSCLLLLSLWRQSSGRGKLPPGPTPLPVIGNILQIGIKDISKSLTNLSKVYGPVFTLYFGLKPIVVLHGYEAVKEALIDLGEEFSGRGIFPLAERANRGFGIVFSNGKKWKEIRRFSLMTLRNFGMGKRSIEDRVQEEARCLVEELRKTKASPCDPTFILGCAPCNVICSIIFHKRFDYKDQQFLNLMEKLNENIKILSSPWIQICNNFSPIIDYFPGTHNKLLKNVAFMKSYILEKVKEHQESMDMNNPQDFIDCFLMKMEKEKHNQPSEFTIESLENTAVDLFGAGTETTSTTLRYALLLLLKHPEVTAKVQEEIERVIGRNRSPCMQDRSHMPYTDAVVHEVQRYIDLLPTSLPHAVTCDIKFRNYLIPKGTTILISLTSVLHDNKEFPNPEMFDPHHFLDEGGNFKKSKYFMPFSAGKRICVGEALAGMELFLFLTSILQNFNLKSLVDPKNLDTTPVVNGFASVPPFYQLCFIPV

Cathepsin K = target: T1, Cathepsin K (Homo sapiens, UniProt P43235); assay: Inhibition of recombinant human Cathepsin K using Z-Phe-Arg-AMC as fluorogenic substrate preincubated for 120 mins followed by substrate addition by fluorescence assay
T1 sequence (P43235 whole entry): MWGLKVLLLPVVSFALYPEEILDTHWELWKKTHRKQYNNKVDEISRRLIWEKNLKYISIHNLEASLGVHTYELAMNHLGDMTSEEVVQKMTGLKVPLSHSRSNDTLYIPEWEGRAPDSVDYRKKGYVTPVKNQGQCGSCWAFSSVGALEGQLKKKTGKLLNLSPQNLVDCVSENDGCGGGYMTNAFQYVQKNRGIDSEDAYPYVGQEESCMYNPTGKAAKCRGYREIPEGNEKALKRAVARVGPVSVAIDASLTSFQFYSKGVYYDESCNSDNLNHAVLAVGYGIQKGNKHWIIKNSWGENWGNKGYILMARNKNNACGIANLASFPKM

[4] = Volume of distribution in CD-1 mouse plasma at 2 mg/kg, iv measured up to 8 hrs; assay type: ADME, organism-based
[5] = MRT in CD-1 mouse plasma at 8 mg/kg, po measured up to 8 hrs; assay type: ADME, organism-based
Cytochrome P450 3A4 = Cytochrome P450 3A4 (Homo sapiens, UniProt P08684); assay: Inhibition of CYP3A4 (unknown origin); assay type: ADME
Sequence of Cytochrome P450 3A4 (P08684 whole entry): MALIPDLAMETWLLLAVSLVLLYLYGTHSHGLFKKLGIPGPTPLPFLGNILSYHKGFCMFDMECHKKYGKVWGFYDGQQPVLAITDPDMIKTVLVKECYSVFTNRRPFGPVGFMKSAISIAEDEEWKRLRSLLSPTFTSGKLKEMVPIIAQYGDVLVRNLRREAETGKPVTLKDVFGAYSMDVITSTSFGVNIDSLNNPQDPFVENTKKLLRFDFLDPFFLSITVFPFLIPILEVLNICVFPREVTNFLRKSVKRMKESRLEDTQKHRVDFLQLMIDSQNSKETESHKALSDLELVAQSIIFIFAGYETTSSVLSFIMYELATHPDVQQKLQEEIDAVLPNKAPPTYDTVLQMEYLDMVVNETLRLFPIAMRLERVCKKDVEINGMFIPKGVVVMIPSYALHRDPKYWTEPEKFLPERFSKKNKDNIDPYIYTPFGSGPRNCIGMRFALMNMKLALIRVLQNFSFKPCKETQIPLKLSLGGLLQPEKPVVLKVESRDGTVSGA

Cytochrome P450 2C19 = Cytochrome P450 2C19 (Homo sapiens, UniProt P33261); assay: Inhibition of CYP2C19 (unknown origin); assay type: ADME
Sequence of Cytochrome P450 2C19 (P33261 whole entry): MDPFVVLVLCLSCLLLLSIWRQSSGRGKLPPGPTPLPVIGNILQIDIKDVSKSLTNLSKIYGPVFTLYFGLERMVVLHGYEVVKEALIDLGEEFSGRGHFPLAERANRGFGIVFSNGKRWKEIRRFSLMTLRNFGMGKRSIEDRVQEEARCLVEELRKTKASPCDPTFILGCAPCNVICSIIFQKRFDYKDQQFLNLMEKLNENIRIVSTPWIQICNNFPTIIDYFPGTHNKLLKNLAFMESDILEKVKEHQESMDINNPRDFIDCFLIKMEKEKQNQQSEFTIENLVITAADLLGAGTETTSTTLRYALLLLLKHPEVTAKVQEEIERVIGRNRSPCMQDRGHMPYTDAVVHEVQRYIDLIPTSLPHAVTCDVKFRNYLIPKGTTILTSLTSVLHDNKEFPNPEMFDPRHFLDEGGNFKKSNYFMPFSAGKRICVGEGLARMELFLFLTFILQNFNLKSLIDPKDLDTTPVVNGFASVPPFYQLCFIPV

[6] = Mutagenecity in Salmonella typhimurium TA1537 in presence of S9 fraction at 5 to 100 uM by Ames test; assay type: toxicity, subcellular; settings: salmonella enterica subsp. enterica serovar typhimurium, s9, 100 µM; dose 5-100 µM
Cytochrome P450 2A6 = target: T2, Cytochrome P450 2A6 (Homo sapiens, UniProt P11509); assay: Inhibition of CYP2A6 (unknown origin) at 10 uM; assay type: ADME
T2 sequence (P11509 whole entry): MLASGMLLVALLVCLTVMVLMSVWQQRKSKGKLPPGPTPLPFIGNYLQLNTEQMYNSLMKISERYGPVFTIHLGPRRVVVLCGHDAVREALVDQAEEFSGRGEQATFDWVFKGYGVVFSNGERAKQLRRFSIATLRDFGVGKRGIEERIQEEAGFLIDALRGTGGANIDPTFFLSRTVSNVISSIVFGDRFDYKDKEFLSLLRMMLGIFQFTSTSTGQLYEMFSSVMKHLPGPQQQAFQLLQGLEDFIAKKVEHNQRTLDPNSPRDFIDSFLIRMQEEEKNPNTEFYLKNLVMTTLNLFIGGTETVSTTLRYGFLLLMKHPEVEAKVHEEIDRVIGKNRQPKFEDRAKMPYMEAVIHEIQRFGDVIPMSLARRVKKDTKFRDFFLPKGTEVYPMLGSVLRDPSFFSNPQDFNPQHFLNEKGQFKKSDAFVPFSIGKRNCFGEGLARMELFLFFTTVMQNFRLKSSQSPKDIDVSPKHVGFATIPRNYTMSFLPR

[7] = target: Voltage-gated inwardly rectifying potassium channel KCNH2 (Homo sapiens, UniProt Q12809); assay: Inhibition of human ERG
Sequence of Voltage-gated inwardly rectifying potassium channel KCNH2 (Q12809 whole entry): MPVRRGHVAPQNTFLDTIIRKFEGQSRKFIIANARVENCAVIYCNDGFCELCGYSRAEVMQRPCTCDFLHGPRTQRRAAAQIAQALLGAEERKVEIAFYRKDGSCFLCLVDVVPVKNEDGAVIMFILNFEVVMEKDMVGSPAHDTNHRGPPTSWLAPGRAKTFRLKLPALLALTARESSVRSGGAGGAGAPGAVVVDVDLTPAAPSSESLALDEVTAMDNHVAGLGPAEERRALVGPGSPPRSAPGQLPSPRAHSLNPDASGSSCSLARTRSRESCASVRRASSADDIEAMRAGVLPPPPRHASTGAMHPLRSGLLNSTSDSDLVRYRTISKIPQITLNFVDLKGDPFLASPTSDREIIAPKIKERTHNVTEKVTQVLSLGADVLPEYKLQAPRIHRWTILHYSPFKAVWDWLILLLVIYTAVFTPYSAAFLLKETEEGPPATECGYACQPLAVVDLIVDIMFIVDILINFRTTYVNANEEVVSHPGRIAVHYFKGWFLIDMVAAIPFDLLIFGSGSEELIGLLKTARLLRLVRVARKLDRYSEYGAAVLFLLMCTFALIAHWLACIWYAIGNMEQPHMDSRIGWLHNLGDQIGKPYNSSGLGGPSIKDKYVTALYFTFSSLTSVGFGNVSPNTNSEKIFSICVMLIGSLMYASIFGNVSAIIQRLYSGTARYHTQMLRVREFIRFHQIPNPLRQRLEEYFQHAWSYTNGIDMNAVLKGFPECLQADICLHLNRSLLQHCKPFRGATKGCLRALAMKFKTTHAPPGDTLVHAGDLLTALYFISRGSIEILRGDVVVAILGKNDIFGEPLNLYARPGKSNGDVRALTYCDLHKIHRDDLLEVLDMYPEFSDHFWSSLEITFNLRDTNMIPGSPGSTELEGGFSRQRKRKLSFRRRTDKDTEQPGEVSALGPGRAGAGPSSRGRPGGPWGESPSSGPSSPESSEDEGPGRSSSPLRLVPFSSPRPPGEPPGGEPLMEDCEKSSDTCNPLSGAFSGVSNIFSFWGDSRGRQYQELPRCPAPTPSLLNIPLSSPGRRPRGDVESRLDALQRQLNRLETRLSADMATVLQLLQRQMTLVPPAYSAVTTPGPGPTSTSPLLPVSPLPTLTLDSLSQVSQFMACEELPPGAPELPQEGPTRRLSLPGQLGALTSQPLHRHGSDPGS

Question: Which half-life [1] does the source give for `COc1ccc(-c2ccc(CO[C@H]3C[C@@H](N=C=S)C3)nc2)cc1F` here?
Answer: 45.5 min

Question: What about the Vd [2] of the same compound?
Answer: 126 L/kg

Question: What about the clearance [3] of the same compound?
Answer: 412 mL/min/kg

Question: And the “inhibition (INH)” value (Cytochrome P450 2C9)?
Answer: Not Active

Question: And the IC50 (Cathepsin K)?
Answer: 0.12 µM

Question: And the Vd [4]?
Answer: 27 L/kg

Question: What about the MRT [5] of the same compound?
Answer: 64.2 min

Question: And the IC50 (Cytochrome P450 3A4)?
Answer: 2.6 µM

Question: And the IC50 (Cytochrome P450 2C19)?
Answer: 3.3 µM

Question: And the Activity [6]?
Answer: Non-Toxic

Question: And the “inhibition (INH)” value (Cytochrome P450 2A6)?
Answer: Not Active

Question: And the IC50 [7]?
Answer: 19 µM
